Measured values reported in patent publication US7495088B1, “Modified nucleotide compounds” (Enzo Life Sciences, Inc., priority 1989, dated 2009).

Assays:
[1] = system: Worthington venom exonuclease
[2] = system: Bovine spleen phosphodiesterase
[3] = molecular target: T1, Spleen phosphodiesterase (5'->3' exonuclease) (Bos taurus) (UniProt Q2KJJ8); assay: cleavage_in_vitro
T1 sequence: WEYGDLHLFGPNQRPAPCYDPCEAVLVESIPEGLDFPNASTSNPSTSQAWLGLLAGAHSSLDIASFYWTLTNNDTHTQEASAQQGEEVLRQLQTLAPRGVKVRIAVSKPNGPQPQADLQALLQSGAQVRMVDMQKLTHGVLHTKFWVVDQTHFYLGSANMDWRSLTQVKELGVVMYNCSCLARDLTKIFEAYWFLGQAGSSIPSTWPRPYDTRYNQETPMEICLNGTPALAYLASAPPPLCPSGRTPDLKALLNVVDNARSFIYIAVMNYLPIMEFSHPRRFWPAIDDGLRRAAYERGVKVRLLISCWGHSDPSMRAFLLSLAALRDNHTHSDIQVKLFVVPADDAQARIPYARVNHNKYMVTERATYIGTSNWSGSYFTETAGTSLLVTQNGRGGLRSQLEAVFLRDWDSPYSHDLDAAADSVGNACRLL

[4] = system: Snake venom phosphodiesterase; conditions: pH 9
[5] = molecular target: E. coli RNase H (Escherichia coli, UniProt P0A7Y4); conditions: 2 units RNase H, 60 minutes 37° C.; for ability to form RNase H substrate, 14-mer binding site: 32P-labeled runoff transcripts of pSP65-ALA-D
Chain of E. coli RNase H (P0A7Y4 whole entry): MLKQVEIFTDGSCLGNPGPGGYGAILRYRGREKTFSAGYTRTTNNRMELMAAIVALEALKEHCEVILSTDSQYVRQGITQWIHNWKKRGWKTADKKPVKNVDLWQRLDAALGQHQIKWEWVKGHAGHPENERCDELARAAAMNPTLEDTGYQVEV

[6] = system: B95-8 cells
[7] = molecular target: T2, Bovine spleen DNase II (Bos taurus, UniProt P56541)
T2 sequence (P56541 20-365): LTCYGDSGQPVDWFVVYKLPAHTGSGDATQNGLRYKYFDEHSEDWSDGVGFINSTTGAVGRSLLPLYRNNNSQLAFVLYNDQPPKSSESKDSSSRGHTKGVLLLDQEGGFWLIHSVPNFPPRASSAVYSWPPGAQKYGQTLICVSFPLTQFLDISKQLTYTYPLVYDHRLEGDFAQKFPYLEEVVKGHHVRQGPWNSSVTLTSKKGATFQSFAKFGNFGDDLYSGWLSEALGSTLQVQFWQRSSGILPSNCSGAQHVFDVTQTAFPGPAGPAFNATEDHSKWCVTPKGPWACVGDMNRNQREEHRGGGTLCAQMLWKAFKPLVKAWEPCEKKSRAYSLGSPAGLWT

[8] = molecular target: DNase I (pancreas) (Bos taurus, UniProt P00639 P00639:23-282); assay: cleavage_in_vitro; Mg, Ca, 37 C; conditions: tags: Bethesda Research Laboratories
Chain of DNase I (pancreas) (P00639 23-282, one chain of several): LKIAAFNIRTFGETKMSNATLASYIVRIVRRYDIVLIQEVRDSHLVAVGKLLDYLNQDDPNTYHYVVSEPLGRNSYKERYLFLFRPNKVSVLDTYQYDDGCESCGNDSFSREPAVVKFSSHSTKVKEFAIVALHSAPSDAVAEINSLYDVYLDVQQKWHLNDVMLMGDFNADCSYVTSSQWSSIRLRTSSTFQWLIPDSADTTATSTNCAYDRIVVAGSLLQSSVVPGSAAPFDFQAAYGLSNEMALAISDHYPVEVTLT

[9] = molecular target: Snake venom phosphodiesterase (3'->5' exonuclease) (Crotalus adamanteus, UniProt J3SEZ3 J3SEZ3:24-851); assay: cleavage_in_vitro; Tris pH 9.0, 37 C; conditions: tags: Sigma
Chain of Snake venom phosphodiesterase (3'->5' exonuclease) (J3SEZ3 24-851, one chain of several): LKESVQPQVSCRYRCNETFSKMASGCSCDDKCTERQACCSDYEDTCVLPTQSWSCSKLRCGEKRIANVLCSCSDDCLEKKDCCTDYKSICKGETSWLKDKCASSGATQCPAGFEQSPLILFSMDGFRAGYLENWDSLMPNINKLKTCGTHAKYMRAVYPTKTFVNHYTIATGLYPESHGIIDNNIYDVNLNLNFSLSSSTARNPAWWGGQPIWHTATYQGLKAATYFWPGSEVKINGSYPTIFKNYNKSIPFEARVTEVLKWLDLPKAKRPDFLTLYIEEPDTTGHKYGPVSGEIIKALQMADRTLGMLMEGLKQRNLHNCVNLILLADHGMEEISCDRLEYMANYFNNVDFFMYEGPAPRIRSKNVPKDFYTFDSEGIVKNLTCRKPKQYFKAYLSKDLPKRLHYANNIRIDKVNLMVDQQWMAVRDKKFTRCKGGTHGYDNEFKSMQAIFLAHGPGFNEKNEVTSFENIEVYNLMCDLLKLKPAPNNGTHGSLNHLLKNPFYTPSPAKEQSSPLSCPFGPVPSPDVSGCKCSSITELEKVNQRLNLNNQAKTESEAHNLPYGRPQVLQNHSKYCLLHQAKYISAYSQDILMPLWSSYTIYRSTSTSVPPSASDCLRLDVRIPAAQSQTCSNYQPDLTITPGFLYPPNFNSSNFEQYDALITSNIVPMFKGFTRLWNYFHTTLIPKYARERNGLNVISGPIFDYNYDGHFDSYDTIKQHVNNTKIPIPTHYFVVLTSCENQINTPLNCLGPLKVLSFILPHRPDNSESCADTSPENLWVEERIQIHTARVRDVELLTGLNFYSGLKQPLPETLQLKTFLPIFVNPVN

[10] = molecular target: T3, DNase II (spleen) (Bos taurus, UniProt P56541 P56541:20-365); assay: cleavage_in_vitro; pH 4.6, 25 C; conditions: tags: Bethesda Research Laboratories
T3 sequence: T2 sequence (P56541 20-365)

[11] = molecular target: Venom phosphodiesterase (3'->5' exonuclease) (UniProt J3SEZ3 J3SEZ3:24-851); assay: cleavage_in_vitro; Worthington venom exonuclease; conditions: tags: Worthington
Chain of Venom phosphodiesterase (3'->5' exonuclease) (J3SEZ3 24-851, one chain of several): as above

ATGCAGCTAAGTCA (chemistry not given here) [14-C/T-4]
increase in half-life as compared to 14-C-4 [1]: two-fold

ATGCAGCTAAGTCA (chemistry not given here) [Oligomer 14-C-4]
observation after spleen exonuclease digestion (electrophoretic mobility of the hybrid) [2]: apparently shortened

ATGCAGCTAAGTCA [14-C-4]
activity (relative half-life) ([3]; 3' methylphosphonate linkage at C4,C7,C13, all modified oligos tested more than 200 times as resistant, apparently shortened): > 200

ATGCAGCTAAGTCA [14-G-4]
activity (relative half-life) ([3]; 3' methylphosphonate linkage at G3,G6,G11, >>200, apparently shortened): > 200

ATGCAGCTAAGTCA [14-G-4] (chemistry not given here) [Oligomer 14-G-4]
observation after spleen exonuclease digestion (electrophoretic mobility of the hybrid) [2]: apparently shortened

ATGCAGCTAAGTCA [14-P-4]
activity (relative half-life) ([3]; half-time about 30 min, citrate pH 6.0, 37 C): 1

ATGCAGCTAAGTCA [14-P-4] (chemistry not given here) [Oligomer 14-P-4]
Exonuclease Relative Half-Life, Venom (3′->5′-) [4]: 1

ATGCAGCTAAGTCA [14-T-4]
activity (relative half-life) ([3]; 3' methylphosphonate linkage at T2,T8,T12, >>200, apparently shortened): > 200

ATGCAGCTAAGTCA [14-T-4] (chemistry not given here) [Oligomer 14-T-4]
observation after spleen exonuclease digestion (electrophoretic mobility of the hybrid) [2]: apparently shortened

CTGGGGCTGCAT [12-Me^5a-1]
ability to form RNase H substrate / cleavage of RNA, 12-mer binding site ([5]; NcoI runoff transcript): permitted cleavage of most of the RNA

TGACTTAGCTGCAT (chemistry not given here) [Oligomer 14-P-3]
Tissue Culture Stabilities, Relative Half-Life, +FCS. B95-8 [6]: 1
half-life for digestion by DNase II ([7]; bovine): 10 h
Endonuclease Relative Half-Life, DNase II ([7]; pH 4.6): 1

TGACTTAGCTGCAT [14-A-3]
activity (relative half-life) ([3]; 3' methylphosphonate linkage at A3,A7,A13, >>200): > 200

TGACTTAGCTGCAT [14-A-3] (chemistry not given here) [Oligomer 14-A-3]
ability to form RNase H substrate, 14-mer binding site [5]: formed RNase H substrates

TGACTTAGCTGCAT [14-C-3]
activity (relative half-life) ([3]; 3' methylphosphonate linkage at C4,C9,C12, >>200): > 200

TGACTTAGCTGCAT [14-C-3] (chemistry not given here) [Oligomer 14-C-3]
ability to form RNase H substrate, 14-mer binding site [5]: formed RNase H substrates

TGACTTAGCTGCAT [14-Me6a-3]
activity (relative half-life) ([3]; 3' methylphosphonate linkage at positions 2,4,6,8,10,12, >>200): > 200

TGACTTAGCTGCAT [14-Me^5a-3] (chemistry not given here)
ability to form RNase H substrate, 14-mer binding site [5]: able to form RNase H substrates
3′-exonucleolytic cleavage in tissue culture [6]: single stepwise cleavage
Tissue Culture Stabilities, Relative Half-Life, +FCS. B95-8 [6]: 30

TGACTTAGCTGCAT [14-Me^5b-3] (chemistry not given here)
ability to form RNase H substrate, 14-mer binding site [5]: able to form RNase H substrates
3′-exonucleolytic cleavage in tissue culture [6]: absence of cleavage
Tissue Culture Stabilities, Relative Half-Life, +FCS. B95-8 [6]: 30

TGACTTAGCTGCAT [14-Me^6a-3] (chemistry not given here)
ability to form RNase H substrate, 14-mer binding site [5]: did not
3′-exonucleolytic cleavage in tissue culture [6]: single stepwise cleavage
Tissue Culture Stabilities, Relative Half-Life, +FCS. B95-8 [6]: 30

TGACTTAGCTGCAT [14-Me^6b-3] (chemistry not given here)
3′-exonucleolytic cleavage in tissue culture [6]: absence of cleavage
Tissue Culture Stabilities, Relative Half-Life, +FCS. B95-8 [6]: 30

TGACTTAGCTGCAT [14-P-3]
activity (relative half-life) ([3]; half-time about 30 min, citrate pH 6.0, 5 mM EDTA, 37 C): 1

TGACTTAGCTGCAT [14-P-3] (chemistry not given here) [Oligomer 14-P-3, reference compound]
ability to form RNase H substrate, 14-mer binding site [5]: formed RNase H substrates
Exonuclease Relative Half-Life, Venom (3′->5′-) [4]: 1

TGACTTAGCTGCAT (ssDNA, 3' methylphosphonate linkage at C4,C9,C12) [14-C-3]
activity [8]: 6 relative half-life
activity [9]: > 500 relative half-life
activity [10]: 2 relative half-life

ATGCAGCTAAGTCA (ssDNA, 3' methylphosphonate linkage at T2,T8,T12) [14-T-4]
activity [9]: > 500 relative half-life

ATGCAGCTAAGTCA (ssDNA, 3' methylphosphonate linkage at G3,G6,G11) [14-G-4]
activity [9]: 100 relative half-life

TGACTTAGCTGCAT (ssDNA, 3' methylphosphonate linkage at positions 2,4,6,8,13) [14-Me5b-3]
activity [8]: 12 relative half-life
activity [10]: > 5 relative half-life

ATGCAGCTAAGTCA (ssDNA, 3' methylphosphonate linkage at T12,C13) [14-C/T-4]
activity [11]: ~2 half-life relative to 14-C-4

TGACTTAGCTGCAT (ssDNA, 3' methylphosphonate linkage at positions 2,4,6,9,11,13) [14-Me6b-3]
activity [8]: > 600 relative half-life
activity [10]: > 5 relative half-life

TGACTTAGCTGCAT (ssDNA, 3' methylphosphonate linkage at positions 2,4,6,10,12) [14-Me5a-3]
activity [8]: 300 relative half-life
activity [10]: > 5 relative half-life

TGACTTAGCTGCAT (ssDNA, 3' methylphosphonate linkage at A3,A7,A13) [14-A-3]
activity [10]: > 5 relative half-life

TGACTTAGCTGCAT (ssDNA, 3' methylphosphonate linkage at positions 2,4,6,8,10,12) [14-Me6a-3]
activity [8]: > 600 relative half-life
activity [10]: > 5 relative half-life
